Here are results for 39 compounds from ChEMBL document CHEMBL1955843, “Novel hepatitis C virus replicon inhibitors: synthesis and structure-activity relationships of fused pyrimidine derivatives” (Bioorg Med Chem Lett, 2012).

Data set [1] has as its system Hepatitis C virus. Description: Antiviral activity against Hepatitis C virus subtype 1b infected in HuH7 cells assessed as inhibition of viral replication by RT-PCR analysis in the presence of fetal calf serum. It is filed as functional, organism-based, Hepacivirus hominis. The conditions noted are these: genotype 1b, Huh-7.
Data set [2] has as its system Hepatitis C virus. Description: Antiviral activity against Hepatitis C virus subtype 1a infected in HuH7 cells assessed as inhibition of viral replication by RT-PCR analysis in the presence of fetal calf serum. It is filed as functional, organism-based, Hepacivirus hominis. Particulars: Huh-7.
The nature of data set [3]: Cytotoxicity against human HuH7 cells by MTT assay. It is filed as cell-based, Huh-7. The conditions noted are these: read-out: TD50 (the source's name). Background: Tetrazolium assays rely on reduction of a dye to a coloured formazan, in cell work by metabolically active cells.
Data set [4] in a line: Half life in rat at 2.5 mg/kg, po and 2.5 mg/kg, iv. Format: ADME, organism-based. Particulars: in vivo.
Data set [5] has as its system Rattus norvegicus. Description: AUC in rat plasma at 2.5 mg/kg, po. It is filed as ADME, organism-based. Further details: dose 2.5 mg/kg, route oral. The conditions noted are these: in vivo.
Data set [6] deals with Rattus norvegicus. Description: Oral bioavailability in rat at 2.5 mg/kg. It is filed as ADME, organism-based. The conditions noted are these: in vivo.
Data set [7] is described as follows: Cmax in rat at 2.5 mg/kg, po. It is filed as ADME, organism-based. Further details: dose 2.5 mg/kg, route oral. Particulars: in vivo.
The subject of data set [8] is Hepatitis C virus. Description: Antiviral activity against Hepatitis C virus subtype 1b infected in HuH7 cells assessed as inhibition of viral replication by RT-PCR analysis in the presence of human serum. Format: functional, organism-based, Hepacivirus hominis. The conditions noted are these: genotype 1b, Huh-7.
Data set [9] deals with Rattus norvegicus. Description: Clearance in rat at 2.5 mg/kg, po and 2.5 mg/kg, iv. It is filed as ADME, organism-based. Particulars: in vivo.
Data set [10] is described as follows: Ratio of EC50 for HCV subtype 1a to EC50 for HCV subtype 1b. It is filed as functional.

Consider `Cc1ccc(Sc2ccc(F)cc2)c(Nc2ncnc3nc(C)ccc23)c1`, for which the EC50 in [1] was found to be 3 µM; in [2], 10.5 µM. The CC50 in [3] was 6.1 µM.

For the compound `CCc1ccc2c(Nc3cc(C)ccc3Sc3ccc(NC(C)=O)cc3)ncnc2n1`, the EC50 was 6.9 µM in [1] and greater than 12.5 µM in [2]. In [3], the CC50 was greater than 12.5 µM.

For `Cc1ccc(Sc2ccccc2)c(Nc2ncnc3nc(C)ccc23)c1`, the values for the EC50 in [1] and in data set [2] were 3.84 µM and 13.3 µM, respectively. The CC50 in data set [3] was 22.2 µM.

For the compound `CCCc1ccc2c(Nc3cc(C)ccc3Sc3ccccc3)ncnc2n1`, the figures for the EC50 in [1] and in data set [2] were 0.32 µM and 9.5 µM, respectively. In [3], the CC50 worked out at 11.8 µM.

With `CCSc1ncc2c(Nc3cc(C)ccc3Sc3ccc(O)cc3)ncnc2n1`, the EC50 was determined as 0.01 µM in data set [1] and 4.8 µM in [2]. For the same compound, the CC50 in [3] was 46.9 µM.

Consider `Cc1ccc(Sc2ccccc2)c(Nc2ncnc3nc(C(C)C)ccc23)c1`, for which the EC50 in data set [1] stood at 3.4 µM; in data set [2] it was 10.3 µM. For the same compound, the CC50 in data set [3] was 8 µM.

Take `Cc1ccc(Sc2ccc(O)cc2)c(Nc2ncnc3nc(C(C)(C)C)ccc23)c1`: the EC50 in data set [1] was 0.47 µM; in [2], 4.6 µM. In addition, in data set [3], the CC50 turned out to be 7.1 µM.

Regarding `Cc1ccc(Sc2ccc(O)cc2)c(Nc2ncnc3nc(C(C)C)ccc23)c1`, in data set [4], the half-life is 3.1 h. This compound showed an AUC in data set [5] of 1580 ng·h/mL. Moreover, the EC50 in data set [1] is 0.016 µM; in data set [2], 0.17 µM; in [8], 0.17 µM. The F in data set [6] is reported as 10%. This compound came in with a Cmax in [7] of 70 nM. Moreover, the CC50 in [3] worked out at 22.9 µM. In data set [9], this compound showed a CL of 26.3 mL/min/kg.

With `Cc1ccc(Sc2ccc(O)cc2)c(Nc2ncnc3nc(N(C)C)ncc23)c1`, the EC50 in data set [1] and in [2] was greater than 50 µM throughout. Besides, the CC50 in data set [3] is greater than 50 µM.

In the case of `Cc1ccc(Sc2ccc(O)cc2)c(Nc2ncnc3nc(N4CCOCC4)ncc23)c1`, the EC50 was 7.3 µM in data set [1] and 14.1 µM in data set [2]. In addition, in data set [3], the CC50 was greater than 50 µM.

With `Cc1ccc(Sc2ccc(O)cc2)c(Nc2ncnc3nc(N4CCCCC4)ncc23)c1`, the EC50 is 2.8 µM in [1] and 22 µM in [2]. Further, the CC50 in data set [3] is greater than 50 µM.

In the case of `CCNc1ncc2c(Nc3cc(C)ccc3Sc3ccc(O)cc3)ncnc2n1`, the EC50 in data set [1] is 30 µM; in data set [2] it was 47.6 µM. Moreover, in [3], the CC50 is greater than 50 µM.

`Cc1ccc(Sc2ccccc2)c(Nc2ncnc3nc(C4CCC4)ccc23)c1`: the EC50 in data set [1] came to 1.6 µM; in data set [2], 6.1 µM. Besides, the CC50 in data set [3] worked out at 3.6 µM.

On to `CCCc1ccc2c(Nc3cc(C)ccc3Sc3ccc(NC(C)=O)cc3)ncnc2n1`, for which the EC50 turned out to be 0.63 µM in data set [1] and 13.8 µM in [2]. Besides, in data set [3], the CC50 is greater than 25 µM.

As to `CC(=O)Nc1ccc(Sc2ccc(C)cc2Nc2ncnc3nc(C4CCC4)ccc23)cc1`, the EC50 was found to be 3.7 µM in data set [1] and 15.8 µM in [2]. Besides, in data set [3], the CC50 is 49.2 µM.

For `Cc1ccc(Sc2ccc(O)cc2)c(Nc2ncnc3nc(C4CCCCC4)ccc23)c1`, the values for the EC50 in data set [1] and in [2] were 0.88 µM and 2.7 µM, respectively. Besides, the CC50 in [3] was greater than 3.12 µM.

Turning to `Cc1ccc(Sc2ccc(O)cc2)c(Nc2ncnc3nc(C4CC4)ccc23)c1`, the values for the EC50 in [1] and in data set [2] were 1.6 µM and 10.5 µM, respectively. Besides, in data set [3], the CC50 is 17.4 µM.

As for `CC(=O)Nc1ccc(Sc2ccc(C)cc2Nc2ncnc3nc(C(C)C)ccc23)cc1`, the EC50 in [1] amounted to 13.8 µM; in data set [2], 2.6 µM. For the same compound, in data set [3], the CC50 was 28.8 µM.

Consider `CC(=O)Nc1ccc(Sc2ccc(C)cc2Nc2ncnc3nc(C4CC4)ccc23)cc1`, for which the EC50 in data set [1] turned out to be 1.7 µM; in [2] it was 15.2 µM. Moreover, the CC50 in data set [3] amounted to 29.8 µM.

`CCOc1ncc2c(Nc3cc(C)ccc3Sc3ccc(O)cc3)ncnc2n1`: the values for the EC50 in [1] and in data set [2] were 12 µM and 7.3 µM, respectively. The CC50 in [3] came out at 29.7 µM.

Consider `Cc1ccc(Sc2ccccc2)c(Nc2ncnc3nc(CC(C)C)ccc23)c1`, for which the EC50 was found to be 1 µM in data set [1] and 13.3 µM in data set [2]. Also, in data set [3], the CC50 is 7.5 µM.

With `COc1ccc(Sc2ccc(C)cc2Nc2ncnc3nc(C(C)C)ccc23)cc1`, the EC50 turned out to be 1.7 µM in [1] and 11.4 µM in data set [2]. For the same compound, the CC50 in data set [3] is 8.8 µM.

In the case of `Cc1ccc(Sc2ccc(F)cc2)c(Nc2ncnc3nc(C(C)C)ccc23)c1`, the EC50 in data set [1] turned out to be 1.8 µM; in [2], 3.2 µM. In data set [3], the CC50 is 4.8 µM.

As to `Cc1ccc(Sc2ccc(O)cc2)c(Nc2ncnc3nc(C4CCC4)ccc23)c1`, the EC50 came out at 3.1 µM in [1] and 11.3 µM in data set [2]. Further, the CC50 in data set [3] is 31.8 µM.

Consider `CCc1ccc2c(Nc3cc(C)ccc3Sc3ccccc3)ncnc2n1`, for which the values for the EC50 in data set [1] and in data set [2] were 3.4 µM and 18.9 µM, respectively. Further, the CC50 in [3] is 22.7 µM.

In the case of `Cc1ccc(Sc2ccc(NS(C)(=O)=O)cc2)c(Nc2ncnc3nc(C(C)C)ccc23)c1`, the EC50 in [1] came out at 11.2 µM; in data set [2], 18.9 µM. For the same compound, the CC50 in data set [3] was greater than 50 µM.

With `Cc1ccc(Sc2ccccc2)c(Nc2ccnc3nc(C)ccc23)c1`, the EC50 in data set [1] turned out to be 0.018 µM; in data set [2] it was 1.8 µM. Also, in data set [3], the CC50 was found to be 8.6 µM. Besides, in data set [10], the Ratio EC50 came out at 100.

In the case of `COc1ccc(Sc2ccc(C)cc2Nc2ncnc3nc(C)ccc23)cc1`, the EC50 in data set [1] is 13.3 µM; in [2], 44.5 µM. Moreover, the CC50 in [3] is 28.6 µM.

Take `Cc1ccc(Sc2ccc(O)cc2)c(Nc2ncnc3nc(C)ccc23)c1`: the EC50 in [1] came out at 0.05 µM; in [2], 23.4 µM. In addition, in data set [3], the CC50 was greater than 100 µM.

Consider `CC(=O)Nc1ccc(Sc2ccc(C)cc2Nc2ncnc3nc(C)ccc23)cc1`, for which the 50% effective concentration (EC50) in [1] and in data set [2] was greater than 50 µM each time. The CC50 in data set [3] is greater than 50 µM.

With `Cc1ccc(Sc2ccccc2)c(Nc2cccc3nc(C)ccc23)c1`, the EC50 in data set [1] was 9.9 µM; in [2], 15.7 µM. In addition, in [3], the CC50 turned out to be 15.9 µM.

Consider `Cc1ccc(Sc2ccccc2)c(Nc2ncnc3nc(C4CC4)ccc23)c1`, for which the EC50 in [1] was 3.7 µM; in [2], 10.4 µM. In [3], the CC50 is 9.9 µM.

Turning to `CCc1ccc2c(Nc3cc(C)ccc3Sc3ccc(O)cc3)ncnc2n1`, the EC50 in data set [1] amounted to 10 µM; in data set [2] it was 62.2 µM. Also, in data set [3], the CC50 amounted to 78 µM.

Take `Cc1ccc(Sc2ccccc2)c(Nc2ccnc3cc(C)ccc23)c1`: the EC50 in data set [1] came out at 1.8 µM. The CC50 in data set [3] was determined as 2.6 µM.

Regarding `CC(=O)Nc1ccc(Sc2ccc(C)cc2Nc2ncnc3nc(CC(C)C)ccc23)cc1`, the EC50 in data set [1] is 3.3 µM; in [2], 27.4 µM. The CC50 in data set [3] was 38.5 µM.

Consider `COc1ncc2c(Nc3cc(C)ccc3Sc3ccc(O)cc3)ncnc2n1`, for which the EC50 in data set [1] and in data set [2] was greater than 8 µM in each case. The CC50 in [3] was greater than 8 µM.

With `Cc1ccc(Sc2ccc(O)cc2)c(Nc2ncnc3nc(CC(C)C)ccc23)c1`, the results for the EC50 in [1] and in [2] were 2.4 µM and 14.3 µM, respectively. The CC50 in [3] was found to be 11.2 µM.

Consider `CCCc1ccc2c(Nc3cc(C)ccc3Sc3ccc(O)cc3)ncnc2n1`, for which the values for the EC50 in [1] and in data set [2] were 0.25 µM and 7.1 µM, respectively. Moreover, the CC50 in data set [3] was found to be 31.1 µM.

Take `Cc1ccc(Sc2ccc(O)cc2)c(Nc2ncnc3nc(Oc4ccccc4)ncc23)c1`: the EC50 in [1] worked out at 3.5 µM; in data set [2] it was 5.3 µM. Besides, the CC50 in data set [3] was 17.1 µM.

For orientation: EC50 means the concentration that produces a half-maximal response. The term half-life denotes the time needed for the level to fall by half in the phase considered. In general, AUC refers to concentration integrated over time. The low end stands for low exposure, the high end for high exposure. By Cmax is commonly meant the highest concentration seen after dosing.
